“Also recorded” adds a separate entry of the source.
Columns and labels:
[1] = target: CB1 (Homo sapiens (Human), UniProt P21554); assay: CB1 Binding Assay ([3H]CP 55940, cell membrane homogenates)
Protocol: (§1) After being incubated, the samples were filtered rapidly under vacuum through glass fiber filters (GF/B; Packard) presoaked with 0.3% PEI and rinsed several times with ice-cold buffer containing 50 mM Tris HCl (pH 7.4) and 0.5% BSA using a 96-sample cell harvester (Unifilter; Packard). The filters were dried then counted for radioactivity in a scintillation counter (Topcount; Packard) using a scintillation cocktail (Microscint 0; Packard). The results were expressed as a percentage of the inhibition of the control radioligand-specific binding. The reference standard compounds were tested in each experiment at several concentrations to obtain a competition curve from which its IC50 was calculated.

[2] = target: T1, CB2 (Homo sapiens (Human), UniProt P34972); assay: CB2 Binding Assay ([3H]WIN 55212-2, cell membrane homogenates)
T1 sequence (P34972 whole entry): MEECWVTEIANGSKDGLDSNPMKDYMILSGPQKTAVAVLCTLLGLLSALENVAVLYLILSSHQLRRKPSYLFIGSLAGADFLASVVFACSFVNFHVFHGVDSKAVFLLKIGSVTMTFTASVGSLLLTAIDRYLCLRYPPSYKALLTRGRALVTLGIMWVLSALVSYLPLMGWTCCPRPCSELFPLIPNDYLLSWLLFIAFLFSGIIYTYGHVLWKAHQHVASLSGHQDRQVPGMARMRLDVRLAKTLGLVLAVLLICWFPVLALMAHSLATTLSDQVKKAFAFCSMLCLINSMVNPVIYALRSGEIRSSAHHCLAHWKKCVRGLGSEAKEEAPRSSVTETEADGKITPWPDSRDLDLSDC
Protocol: as §1, with “Cell membrane homogenates (15 μg protein) were incubated for 120 min at 37° C. with 0.8 nM [3H]WIN 55212-2 (the reference standard [Munro, 1993 #1321]) in the absence or presence of the test compound in a buffer containing 50 mM HEPES/Tris HCL (pH 7.4), 5 mM MgCl2, 2.5 mM EGTA, and 0.1% BSA. Nonspecific binding was determined in the presence of 10 μM WIN 55212-2. After” for “After”

[3] = target: T1, CB2; assay: CB1/CB2 Functional Assay (GTPγ[35S]), CB2 membranes; type: biochemical
Protocol: A dose response curve was generated at eight concentrations in duplicate on CB1 and CB2 in light of reference agonists. The reference agonists for cannabinoid receptors was CP55,940. See FIGS. 1A, 1B, 2A, 2B, 3A and 3B.
Membranes (CB1, ES-110-MG or CB2, ES-111-MG) were mixed with GDP (volume:volume) and incubated for at least 15 min on ice. In parallel, GTPγ[^35S] were mixed with the beads (volume:volume) just before starting the reaction. The following reagents were successively added in the wells of an Optiplate: 50 μl of ligand, 20 μl of the membranes:GDP mix, 10 μl of assay buffer for agonist testing and 20 μl of the GTPγ[^35S]: beads mix. The plates were covered with a topseal, shaken on an orbital shaker for 2 min, and then incubated between 30 to 60 min. at room temperature. Then the plates were centrifuged for 10 min at 2000 rpm, incubated at room temperature between 1 to 4 hours and counted for 1 min with a PerkinElmer TopCount reader.

[4] = test system: spinal nerve ligation neuropathic pain model; assay: Tactile allodynia in SNL neuropathic pain model (von Frey); type: in vivo, rat
Protocol: Adult, male Sprague Dawley (Harlan Sprague Dawley, Indianapolis, Ind.) rats weighing 120-150 gm were used in experimental procedures approved by the Animal Care and Use Committee of the M. D. Anderson Cancer Center, University of Texas. Animals were housed three per cage on a 12/12 hr light/dark cycle with water and food pellets available ad libitum.
All surgical procedures were performed under deep isoflurane anesthesia in 100% 02. The spinal nerve ligation (SNL) was performed as described previously. Kim, S. H., et al., An Experimental Model for Peripheral Neuropathy Produced by Segmental Spinal Nerve Ligation in the Rat, Pain, 1992, 50:355-63. Briefly, a midline incision above the lumbar spine exposed the left L6 transverse process. The process was then removed, the left L5 and L6 spinal nerves were isolated, and both nerves were tightly ligated with 6-0 silk. Prophylactic antibiotic (norfloxacin 5 mg/kg subcutaneously) and analgesic (buprenorphine, 0.2-0.5 mg/kg, or morphine, 2.5 mg/kg, given subcutaneously) were administered once daily for 3 days. All the experiments were conducted 10-14 days after spinal nerve ligation.
Rats were placed in a compartment with a wire mesh bottom and allowed to acclimate for a minimum of 30 min before testing. Mechanical sensitivity was assessed using a series of Von Frey filaments with logarithmic incremental stiffness (0.41, 0.70, 1.20, 2.00, 3.63, 5.50, 8.50, and 15.1 g) (Stoelting, Wood Dale, Ill.) as previously described, and 50% probability withdrawal thresholds were calculated with the up-down method. Chaplan, S. R., et al., Quantitative Assessment of Tactile Allodynia in the Rat Paw, J. Neurosci. Methods, 1994, 53:55-63; Dixon, W., The Up-and-Down Method for Small Samples, J. Am. Stat. Assoc., 1965, 60:967-78. In brief, beginning with the 2.0-g probe, filaments were applied to the plantar surface of a hind paw for 6-8 s, in an ascending or descending order after a negative or positive withdrawal response, respectively. Six consecutive responses from the first change in the response were used to calculate the withdrawal threshold (in grams). In cases where response thresholds fell outside the range of detection, 15.00 and 0.25 g were, respectively, assigned for continuous negative or positive responses to the limit of stimuli. The percent maximal possible effect (% MPE) was calculated as ([postdrug threshold−baseline threshold]/[cutoff threshold (15 g)−baseline threshold])×100.
Statistical analyses were carried out using BMDP 2007 (Statistical Solutions, Saugus, Mass., USA) and Graph Pad Prism (version 4.03; Graph Pad Software Inc., San Diego, Calif., USA). Data were analyzed using one-way ANOVA, repeated measures ANOVA, or t-test where appropriate. If ANOVA was significant, Tukey-Kramer post hoc analysis was used for multiple group comparison. Area under the curve (AUC) was calculated using the trapezoidal rule. The results are presented as mean±s.e. mean and were considered significant at P<0.05. Analyses of the dose-response curves and statistics were obtained using the pharmacologic software programs of Tallarida and Murray and included calculation of the ED50 values and their 95% confidence intervals (CI). Tallarida, R. J., et al., Manual of Pharmacologic Calculations With Computer Programs, Second ed. New York: Springer-Verlag, 1987.

[5] = CB1, test concentration 1.0E−05 (MD)
[6] = CB2, test concentration 1.0E−05 (MD)

Chain of CB1 (P21554 whole entry): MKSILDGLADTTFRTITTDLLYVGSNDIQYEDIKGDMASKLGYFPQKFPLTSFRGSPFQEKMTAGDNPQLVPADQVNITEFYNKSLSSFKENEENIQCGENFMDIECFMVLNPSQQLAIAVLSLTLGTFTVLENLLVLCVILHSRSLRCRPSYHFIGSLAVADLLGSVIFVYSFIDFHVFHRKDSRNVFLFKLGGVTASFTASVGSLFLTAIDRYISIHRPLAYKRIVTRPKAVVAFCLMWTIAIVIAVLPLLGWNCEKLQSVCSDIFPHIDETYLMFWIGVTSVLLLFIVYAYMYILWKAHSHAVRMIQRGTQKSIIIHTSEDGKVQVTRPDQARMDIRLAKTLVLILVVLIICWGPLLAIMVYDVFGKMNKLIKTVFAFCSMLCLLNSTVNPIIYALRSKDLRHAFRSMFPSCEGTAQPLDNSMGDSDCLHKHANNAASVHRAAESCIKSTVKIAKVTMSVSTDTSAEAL

CC1(Cc2ccccc2)COc2cc(C(=O)N3CCCCC3)ccc21 (stereo not shown) [Example 3, 3-benzyl-3-methyl-2,3-dihydrobenzofuran-6-carboxylic acid-piperidine amide]
% Inhibition of Control Specific Binding [1, 5]: 71% | % of Control Specific Binding Mean [1, 5]: 29% | % of Control Specific Binding 1st ([1]; CB1, test concentration 1.0E−05 (MD), first replicate): 22% | % of Control Specific Binding 2nd ([1]; CB1, test concentration 1.0E−05 (MD), second replicate): 36% | % Inhibition of Control Specific Binding CB1 ([1]; as repeated in Table 3): 71% | % Inhibition of Control Specific Binding [2, 6]: 91% | % of Control Specific Binding Mean [2, 6]: 9.4% | % of Control Specific Binding 1st ([2]; CB2, test concentration 1.0E−05 (MD), first replicate): 13% | % of Control Specific Binding 2nd ([2]; CB2, test concentration 1.0E−05 (MD), second replicate): 5.8% | % Inhibition of Control Specific Binding CB2 ([2]; as repeated in Table 4): 91% | Compound Function [3]: Agonist | EC50 ([3]; read-out: EC50 (nM) for GTP Binding): 160 nM | % Activation Average ([3]; reference agonist CP55,940): 87.2% | antiallodynic effect compared with 15 mg/kg AM1241 i.p. ([4]; 10 mg/kg i.p.): significantly (P<0.001) greater | ED50 ([4]; Rattus norvegicus, ip, 0.5 h, i.p., at 30 min, SNL model, read-out: ED50 anti-allodynic effect (tactile allodynia)): 7.48 mg/kg | effect of AM251 pretreatment (5 mg/kg i.p.) on antiallodynic effects of the compound ([4]; compound 10 mg/kg i.p., AM251 15 min prior): did not affect the antiallodynic effects; also recorded: had no effect | effect of AM630 pretreatment (5 mg/kg i.p.) on antiallodynic effects of the compound ([4]; compound 10 mg/kg i.p., AM630 15 min prior): antagonized the effects; also recorded: reversed the antiallodynic effects; also recorded: significantly reversed | effect of naloxone pretreatment (10 mg/kg i.p.) on antiallodynic activity ([4]; compound of Example 3 10 mg/kg i.p., naloxone 15 min prior): did not affect the antiallodynic effects; also recorded: had no effect | effect on tactile allodynia ([4]; i.p. 5, 10, 15 mg/kg): attenuated tactile allodynia in a dose-related manner

Reference: patent US9339486B2, “Heterocyclic modulators of cannabinoid receptors” (THE CLEVELAND CLINIC FOUNDATION, priority 2008, dated 2016)
